# From patent US8697714B2, “Quinazolinone based fluorogenic probes” (Nanyang Technological University, priority 2010, dated 2014)
# Key:
# monoamine oxidase A = molecular target: T1, monoamine oxidase A (Homo sapiens, UniProt P21397); test: Fluorescent enhancement of MAO substrates after incubation with MAO A; assay type: biochemical; details: MAO A 10 μg/ml, substrate 200 μM, 37° C., 2 hours, emission 530 nm
# T1 construct: purchased Sigma Aldrich
# T1 sequence (P21397 1-527): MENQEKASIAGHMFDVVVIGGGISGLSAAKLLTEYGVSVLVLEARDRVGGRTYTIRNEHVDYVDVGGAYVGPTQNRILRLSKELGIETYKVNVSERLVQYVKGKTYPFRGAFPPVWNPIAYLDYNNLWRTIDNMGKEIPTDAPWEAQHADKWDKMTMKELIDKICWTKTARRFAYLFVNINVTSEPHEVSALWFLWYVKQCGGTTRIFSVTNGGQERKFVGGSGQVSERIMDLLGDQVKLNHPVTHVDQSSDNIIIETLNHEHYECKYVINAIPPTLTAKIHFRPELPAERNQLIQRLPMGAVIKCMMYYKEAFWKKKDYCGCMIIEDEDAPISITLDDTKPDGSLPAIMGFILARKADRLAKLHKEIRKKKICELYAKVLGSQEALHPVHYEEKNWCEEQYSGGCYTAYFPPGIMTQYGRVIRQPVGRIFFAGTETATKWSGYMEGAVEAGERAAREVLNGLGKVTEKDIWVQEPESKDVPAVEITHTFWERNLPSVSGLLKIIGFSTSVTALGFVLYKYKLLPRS
# Method: (§1) Activity of fluorogenic MAO-HPQ 1, 2 and 3 were determined by the fluorescence intensity after incubations separately with monoamine oxidase A or B at 37° C. for 2 hours. Typically, 5 μl of MAO A and B enzyme solution (final concentration of 10 μg/ml) was incubated with MAO substrates 1, 2 and 3 (final concentration of 200 μM) in a 100 mM Tris-HCl buffer, pH 7.90, 5% glycerol and 5% DMSO. After 2 hours of incubation, the fluorescent enhancement was monitored by Fluorescence spectrophotometer with excitation wavelength at 360 nm.
# (§2) The activity of these three probes (MAO-HPQ 1˜3) towards both MAO isozymes were investigated by in vitro fluorescent measurements. All the MAO substrates 1, 2, and 3 were very stable in aqueous solutions and were almost non-fluorescent before MAO enzymatic oxidation due to the alkylation of the 2′-hydroxyl group in the 2-(2′-hydroxy-5′-chlorophenyl)-6-chloro-4(3H)-quinazolinone fluorophore.
# (§3) The ratio of fluorescent intensity in the presence and absence of MAO enzymes were used to estimate MAO activities.
# monoamine oxidase B = molecular target: T2, monoamine oxidase B (Homo sapiens, UniProt P27338); test: Fluorescent enhancement of MAO substrates after incubation with MAO B; assay type: biochemical; details: MAO B 10 μg/ml, substrate 200 μM, 37° C., 2 hours, emission 530 nm
# T2 construct: purchased Sigma Aldrich
# T2 sequence (P27338 1-520): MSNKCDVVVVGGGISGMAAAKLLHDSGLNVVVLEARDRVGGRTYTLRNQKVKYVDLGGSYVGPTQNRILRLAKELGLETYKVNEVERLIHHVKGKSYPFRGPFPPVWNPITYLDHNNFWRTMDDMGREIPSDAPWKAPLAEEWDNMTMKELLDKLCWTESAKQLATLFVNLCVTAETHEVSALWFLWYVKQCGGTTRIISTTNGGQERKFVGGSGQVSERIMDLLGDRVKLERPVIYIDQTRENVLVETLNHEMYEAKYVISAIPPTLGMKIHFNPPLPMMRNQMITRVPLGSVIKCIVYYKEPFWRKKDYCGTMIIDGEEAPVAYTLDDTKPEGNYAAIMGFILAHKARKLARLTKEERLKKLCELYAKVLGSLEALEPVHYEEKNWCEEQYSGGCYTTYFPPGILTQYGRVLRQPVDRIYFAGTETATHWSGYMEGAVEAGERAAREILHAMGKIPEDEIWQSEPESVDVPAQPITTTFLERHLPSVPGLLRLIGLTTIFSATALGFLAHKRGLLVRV
# Method: as §1, §2, §3
# PC12 cell line = test: Cell viability, standard MTT assay; assay type: cell-based, Rattus norvegicus; details: FIG. 6
# Method: FIG. 6 illustrates the cell viability of substrate MAO-HPQ 1 (2-(5′-chloro-2′-(3-aminopropoxy)phenyl)-6-chloro-4(3H)-quinazolinone) and 2-(2′-hydroxy-5′-chlorophenyl)-6-chloro-4(3H)-quinazolinone (indicated as HPQ″) in PC12 cell line. As a Control, cells were treated with 5% of DMSO only.
# the cytotoxicity activity of MAO-HPQ 1 was evaluated by the standard MTT assay as previously described in Y. H. Choi et al, J. Control. Rel., 1998, 54, 39-48. MAO-HPQ 1 indicates less toxicity and thereby can be used as a probe for real-time imaging of MAO activity in living cells (FIG. 6).
# [1] = system: MAO activity in PC12 cells; test: Imaging of MAO activity in living PC12 cells; assay type: cell-based, Rattus norvegicus; details: 100 μM, 37° C., 1 h
# Method: (§4) PC12 cell (Rattus norvegicus, adrenal gland) was bought from American Type Culture Collection (ATCC Cat No: CR-1721) and maintained in F-12K medium (ATCC, Manassas Va.) containing 10% FBS (Invitrogen, Burlington, Canada). PC12 cell line were seeded at a density of 2×10^5 in a 35 mm diameter μ-dish plastic bottom (ibidi GmbH, Germany) and cultured for 2 days with Nerve Growth Factor (2.5S, 30 ng/mL, Invitrogen, Carlsbad, Calif.)^[2] in Dulbecco's Modified Eagle Medium (DMEM 1×, without phenol red, Gibco/Invitrogen, Carlsbad, Calif.) containing 4.5 g/L D-glucose, 2 mM GlutaMax-1 (Invitrogen). Control C6 glioma cell line was bought from American Type Culture Collection (ATCC Cat No.: CCL-107) and cultured with the same protocol as PC12 cell lines). After 2 days of culture, the live PC12 and C6 glioma cell lines were washed twice with DMEM. The live cells were then treated separately with 100 μM of MAO-HPQ 1 in DMEM (containing 0.5% of DMSO) and incubated for 1 hour in an incubator at 37° C. The cells were washed twice with Hank's Balanced Salt solution (Sigma). The fluorescence imaging was acquired with a Confocal fluorescence microscope (Nikon, Eclipse TE2000-E) using a super high pressure mercury lamp (Nikon, TE2-PS100W) with excitation filter: 360/40 nm; emission filter: 535/40 nm.
# (§5) PC12 cell line was chosen owing to its high expression of MAO. […]
# C6 glioma cells = test: Imaging in living C6 glioma cells (negative control, no MAO expression); assay type: cell-based; details: 100 μM, 37° C., 1 h
# Method: as §4, §5
# [2] = Stability of substrates in aqueous solutions; assay type: physicochemical; details: before MAO enzymatic oxidation
# From the text: as §2
# [3] = system: MAO activity in PC12 cells; test: Inhibition imaging: PC12 cells pre-treated with inhibitor, then MAO-HPQ 1; assay type: cell-based, Rattus norvegicus; details: 100 μM inhibitor pre-treatment, then 100 μM MAO-HPQ 1, 37° C., 1 h
# Method: In the inhibition investigation, the live PC12 cell lines were washed twice with DMEM and pre-treated separately with 100 μM Clorgyline and Pargyline in DMEM for 1 hour in an incubator at 37° C. MAO-HPQ 1 was then added to the μ-dish with the final concentration of 100 μM and incubated for another 1 hour at 37° C. The cells were then washed twice with Hank's Balanced Salt solution. The fluorescence imaging was acquired with the Confocal fluorescence microscope.
# Further imaging investigations were conducted by utilizing two commonly used inhibitors: Clorgyline for MAO A and Pargyline for MAO B. The PC12 cells were pre-treated separately with 100 μM of MAO A inhibitor clorgyline and MAO B inhibitor pargyline, and then incubated with 100 μM of MAO-HPQ probe 1 at 37° C. for 1 h. […] This is in accordance with the in vitro enzyme inhibition tests (FIG. 5). MAO-HPQ 1 indicates less toxicity (FIG. 6) and thereby can be used as a new probe for real-time imaging of MAO activity in living cells.
smiles,measurement,setting,value
"NCCCOc1ccc(Cl)cc1-c1nc2ccc(Cl)cc2c(=O)[nH]1 [MAO-HPQ 1, 2-(5′-chloro-2′-(3-aminopropoxy)phenyl)-6-chloro-4(3H)-quinazolinone]",maximum fluorescent enhancement (ratio of fluorescent intensity in the presence and absence of MAO enzyme),monoamine oxidase A,307 fold
same,maximum fluorescent enhancement (ratio of fluorescent intensity in the presence and absence of MAO enzyme),monoamine oxidase B,300 fold
same,cytotoxicity activity (MTT),PC12 cell line,less toxicity
same,fluorescence in live cell imaging,[1],bright fluorescence signals
same,fluorescence in live cell imaging,C6 glioma cells,little
same,stability in aqueous solutions,[2],very stable
"CN(C)CCCOc1ccc(Cl)cc1-c1nc2ccc(Cl)cc2c(=O)[nH]1 [MAO-HPQ 3, 2-(5′-chloro-2′-(3-(N,N′-dimethylamino)propoxy)phenyl)-6-chloro-4(3H)-quinazolinone]",maximum fluorescent enhancement (ratio of fluorescent intensity in the presence and absence of MAO enzyme),monoamine oxidase A,5 fold
same,maximum fluorescent enhancement (ratio of fluorescent intensity in the presence and absence of MAO enzyme),monoamine oxidase B,7 fold
same,stability in aqueous solutions,[2],very stable
"C#CCN(C)Cc1ccccc1 [pargyline, Pargyline]",fluorescence of PC12 cells pre-treated with inhibitor (MAO inhibition in living cells),[3],strong fluorescence similar to the imaging result without inhibitor treatment
"C#CCN(C)CCCOc1ccc(Cl)cc1Cl [clorgyline, Clorgyline]",fluorescence of PC12 cells pre-treated with inhibitor (MAO inhibition in living cells),[3],no obvious fluorescence
"CNCCCOc1ccc(Cl)cc1-c1nc2ccc(Cl)cc2c(=O)[nH]1 [MAO-HPQ 2, 2-(5′-chloro-2′-(3-(N-methylamino)propoxy)phenyl)-6-chloro-4(3H)-quinazolinone]",maximum fluorescent enhancement (ratio of fluorescent intensity in the presence and absence of MAO enzyme),monoamine oxidase A,15 fold
same,maximum fluorescent enhancement (ratio of fluorescent intensity in the presence and absence of MAO enzyme),monoamine oxidase B,20 fold
same,stability in aqueous solutions,[2],very stable
